In patent publication US6989270B1, “Using polyamide nucleic acid oligomers to engender a biological response” (Mayo Foundation for Medical Education and Research, priority 1997, dated 2006):
Read-outs that look alike come from different tables or passages of the source.

Legend:
morphine binding sites = experiment: [3H]morphine binding in rest of brain and small intestine after i.p. AS-NTR1-PNA (Example 8); details: for Binding (% change vs control) Morphine: 24 hours after i.p. injection
[1] = Gel shift assay measuring PNA oligomer in tissue; assay type: in vivo
Description: To confirm the presence and measure the amount of PNA in brain after extracranial administration, a sensitive gel shift assay was developed. This assay involves using a radioactively-labeled oligonucleotide having sequence specificity for a PNA oligomer as a probe to detect that PNA oligomer. Briefly, a sample is prepared and incubated with a probe. If the sample contains a PNA oligomer having sequence specificity for the probe, then the probe can bind that PNA oligomer. This bound form of the probe then can be detected and quantified using gel electrophoresis since a probe bound to a PNA oligomer migrates differently than an unbound probe on a gel.
Brain extracts were prepared from either untreated animals or animals treated intraperitoneally with 10 mg/kg of the AS-NTR1-PNA oligomer. For the treated animals, brain tissue was collected 8 hours post treatment. To prepare brain extracts, flash frozen brain tissue (minus the PAG and hypothalamus) were homogenized in 1 mM Tris (pH 4.0), 0.1 mM EDTA at a concentration of 1.5 ml/g wet weight of tissue. This acidic condition can protonate cytosine bases as well as the N-terminal amino group of the PNA oligomer, which presumably increases the solubility of the PNA oligomer and allows the PNA oligomer to be found in an aqueous phase during the later extraction step. Samples were boiled for five minutes. This boiling step can free the bound PNA oligomer from its target sequence, and inactivate nucleases that may interfere with the integrity of the DNA oligonucleotide probe. Then, the samples were spun two to three times at 35,600×g for 10 minutes each to pellet insoluble material and the supernatants collected. Supernatants were extracted with 10 volumes of CHCl3:MeOH (2:1 v/v) to remove glycolipids that may interfere with gel electrophoresis, and spun briefly at 1,000×g to separate phases. For the standard curves using known amounts of a PNA oligomer, the PNA oligomer was added to the supernatant before the CHCl3:MeOH extraction. The supernatants were collected in a fresh tube, lyophilized, and resuspended in 30 to 40 μl of water.
Once prepared, approximately 400 pg of probe was added to each 30 to 40 μl sample. To prepare the probe, a DNA oligonucleotide (Gibco BRL, Gaithersburg, Md.) complementary to the AS-NTR1-PNA oligomer was end-labeled using T4 Polynucleotide Kinase (Gibco BRL) and [Gamma-^32P]ATP or [Gamma-^33P]ATP (New England Nuclear, Boston, Mass.) according to manufacturer's instructions. […]
After adding the probe, the samples were incubated at room temperature for 20 minutes. […] Signal was detected using a Storm860 Phosphoimager (Molecular Dynamics, Sunnyvale, Calif.) and data were analyzed using ImageQuant Software (Molecular Dynamics, Sunnyvale, Calif.). […]

[2] = tested on: [125I]neurotensin binding sites (NT receptors); experiment: [125I]neurotensin binding assay, PAG and hypothalamus homogenates of treated rats; assay type: in vivo, rat; details: for number of receptors (mean ± SEM in fmol/mg wet wt.) / percent of control / Kd: 24 hours after single oral 10 mg/kg; for Kd: [125I]neurotensin, read-out: KD (mean ± SEM in nM)
[3] = tested on: [125I]neurotensin binding sites (NT receptors); experiment: [125I]neurotensin binding assay, small intestine (jejunum and ileum) membranal preparations of treated rats; assay type: in vivo, rat
Description: Binding assays were performed using procedures similar to those described elsewhere (Kitabgi P. et al., Peptides 5:917-923 (1984) and Ahmad S. et al., Biochim et Biophys Acta 896:224-238 (1987)).
Table II contains the results from an [^125I]neurotensin binding assay using small intestine (jejunum and ileum) membranal preparations from NTR1-PNA treated and untreated rats. The small intestine tissue was harvested from the rats 1 day after receiving a single i.p. injection of NTR1-PNA oligomers as described above. Untreated rats were used to derive control values for the percent control dpm and percent control receptors (fmol/mg). Thus, the values for untreated rats were set to 100 percent.
In addition to determining the influence of […] NTR1-PNA oligomers on anti-nociception and hypothermia, the effects of these oligomers on NT binding sites were determined using the NT receptor binding assay described in Example 1.

[4] = small intestine, 1 day after single i.p. injection (3 mg/kg)

## NTR1-PNA: 12-mer antisense PNA oligomer to rat NTR1 coding region, 5′-CATTGCTCAAAC-3′ (SEQ ID NO: 1) (all peptide nucleic acid (PNA))
Morphine binding sites; Rest of Brain
  Binding (% change vs control) Morphine: 2 ± 2 % change vs control
Morphine binding sites; Small Intestine
  Binding (% change vs control) Morphine: −7 ± 8 % change vs control
Morphine binding sites; rest of brain or small intestine
  number of morphine binding sites compared to controls: no significant difference
[1]; 8 hours after i.p. 10 mg/kg
  integrity of PNA oligomer recovered from brain (gel mobility shift): unaltered
[1]; 8 hours after i.p. 10 mg/kg, perfused and non-perfused animals
  presence of PNA oligomer in brain extracts: detected in brain extracts prepared from treated animals
[1]; 8 hours after intraperitoneal 10 mg/kg, corrected for recovery
  concentration of PNA oligomer within brain: 2.4±0.3 ng/whole brain
[1]; tissues 2 hours after i.p. 10 mg/kg (perfused), blood 5 minutes after i.v. 10 mg/kg
  presence of PNA oligomer in brain, heart, kidney, liver, spleen and blood: detected in each tissue
[2]; Hypothalamus tissue, untreated control, PNA injected into PAG
  % Control dpm's: 55 % Control
[2]; Hypothalamus
  number of receptors (mean ± SEM in fmol/mg wet wt.): 240 ± 30 fmol/mg wet wt.
  percent of control: 51%
[2]; PAG and hypothalamus, 24 hours after oral 10 mg/kg
  NT binding sites reduced: 50%
[2]; PAG
  number of receptors (mean ± SEM in fmol/mg wet wt.): 140 ± 20 fmol/mg wet wt.
  percent of control: 48%
[2]; PAG of treated rats
  Kd: 8.2 ± 0.7 nM
[2]; hypothalamus of treated rats
  Kd: 7 ± 0.8 nM
[3]; Small intestine, 24 hours after single oral 10 mg/kg
  number of receptors (mean ± SEM in fmol/mg wet wt.): Below Detection
[3]; [4]
  % Control dpm's: 41 % Control
  % Control receptors: 2 % Control
[3]; small intestine, 24 hours after oral 10 mg/kg
  NT binding sites: completely abolished
[3]; small intestine, one day after i.p. treatment
  fewer [125I]neurotensin binding sites than untreated rats: 98%
